We go through two molecules from publication PMC9571290, “Preliminary Structure–Activity Relationship Study of the MMV Pathogen Box Compound MMV675968 (2,4-Diaminoquinazoline) Unveils Novel Inhibitors of Trypanosoma brucei brucei” (Molecules, 2022).

In assay [1] the test system is bloodstream form of Trypanosoma brucei brucei. The assay can be described thus: parasite-killing kinetics and cidal or static effect. The format is cell-based. As to conditions: for cidal or static effect after inhibitor removal: IC90 and IC99, removal at 4 h (10) or 24 h (7), subculture in inhibitor-free medium; for time to total inhibition of trypanosome growth: at IC99. On the procedure: Thus, they were selected, and their effect at various concentrations was assessed on the proliferation rate of the bloodstream form of Trypanosoma brucei brucei using microscopic cell count. […] After specified exposure time intervals (0, 4, 8, 12, 24, 30, 36, 48, 60, 72 h), the content of each well was harvested and counted on a Neubauer hemacytometer to determine the number of mobile parasites. The obtained values were used to plot the growth curves as parasite density (cells/mL) versus incubation time using GraphPad Prism 8.0 software.
Therefore, the ability of parasites to recover post exposure to inhibitors 10 and 7 was further evaluated. […] After that, the cells were washed three times with fresh complete medium by centrifugation at 2500 rpm for 7 min. Cell pellets were thereafter resuspended in fresh complete culture medium in a 24-well plate and subcultured under the same conditions for 68 h for compound 10 and 48 h for compound 7 to achieve the complete parasite growth pattern. Thereafter, cells were enumerated using the Neubauer cell counter at each time point. The assay was performed in duplicate, and the mean cell counts were plotted […] against time using GraphPad Prism 8.0 to assess the cidal or static effect of inhibitors.

The test system of assay [2] is bloodstream forms of Trypanosoma brucei brucei. The assay can be described thus: cellular DNA fragmentation ELISA (apoptosis or cytolysis). The format is cell-based. As to conditions: 4 h; for apoptotic DNA fragmentation: lysate, at IC50. On the procedure:
Basically, this assay tends to quantify apoptotic cell death by detection of […] dye-labeled DNA fragments in the cytoplasm of affected cells or to measure cell-mediated cytotoxicity by detection of dye-labeled DNA fragments released from damaged cells into the culture supernatant. […] BrdU-labeled parasites were harvested (by spinning at 2500 rpm for 7 min) followed by centrifugal washing using BrdU-free HMI-9 medium. […] The plate was then centrifuged at […] for 7 min, and the pellets were collected and kept at 4 °C until further use. For cytolysis measurement, the supernatants were added to a microplate coated with anti-DNA antibody to allow DNA capture from the test samples. The captured DNA fragments were subsequently denatured using microwave irradiation (LG NeoChef Charcoal Healthy Ovens) at 500 W for 5 min to separate DNA strands in view of displaying the BrdU. Thereafter, an anti-BrdU-antibody-POD (peroxidase) conjugate was added to detect the BrdU contained in the captured DNA fragments.
For apoptosis measurement, the cell pellets from each well were resuspended in 200 µL of the kit’s incubation buffer and incubated for 30 min. The lysed cells were centrifuged at […] for 10 min, and the supernatants were used as described above. Triton X-100 (Sigma Aldrich) was used as a positive control for both apoptosis and cell-mediated cytotoxicity. The absorbance values were proportionally correlated to the amount of DNA fragments in the treated cultures. Data are expressed as the mean ± SD of two independent experiments performed in duplicate and compared to the negative control (untreated parasites) at a significance level of p < 0.05.
Background: ELISA stands for enzyme-linked immunosorbent assay.

SMILES strings stand for the structures.

For `Nc1nc(N)c2cc(CNc3cc(Cl)ccc3Cl)ccc2n1` [Analog 10, 6-(((2,5-dichlorophenyl)amino)methyl)quinazoline-2,4-diamine], in assay [1], the “cidal or static effect after inhibitor removal” value is listed as “cidal effect” and the “time to total inhibition of trypanosome growth” value is at most 4 h. Moreover, the “apoptotic DNA fragmentation” value in assay [2] is recorded as “significant inducing effect”.

For `COc1ccccc1NCc1ccc2nc(N)nc(N)c2c1` [Analog 7, 6-(((2-methoxyphenyl)amino)methyl)quinazoline-2,4-diamine], in assay [1], the “cidal or static effect after inhibitor removal” value is “static effect” and the “time to total inhibition of trypanosome growth” value is on record as at most 24 h. For the same molecule, the “induction of cell lysis (cytolysis)” value in assay [2] (culture supernatant) is “did not exert any effect”. Moreover, the “apoptotic DNA fragmentation” value in assay [2] is “did not exert any effect”.
